Converted amounts (≈) assume the structure as drawn. The source made the active and inactive calls. The rule behind the calls is not given here.
How the values were obtained:
Albumin [1] = biological target: T1, Albumin (Homo sapiens, UniProt P02768); assay: Binding affinity to HSA assessed as equilibrium binding constant at pH 7.4 at 290 K by scatchard assay; type: ADME; conditions: isolated protein
Pseudomonas aeruginosa [2] = assay: Bactericidal activity against drug sensitive Pseudomonas aeruginosa assessed as bacterial load at 4 times MIC after 150 mins by time-kill assay (reference value: 4.3 10^6 CFU/ml); type: functional
Candida tropicalis [3] = assay: Potency index, ratio of fluconazole MIC to compound MIC for Candida tropicalis; type: functional
DNA [4] = assay: Induction of sensitive Pseudomonas aeruginosa DNA cleavage at 75 uM by ethidium bromide staining-based agarose gel electrophoresis; type: nucleic-acid assay
Escherichia coli [5] = assay: Antibacterial activity against drug-resistant Escherichia coli after 24 hrs by micro broth dilution method; type: functional
Pseudomonas aeruginosa [6] = assay: Bactericidal activity against drug sensitive Pseudomonas aeruginosa assessed as bacterial load at 4 times MIC after 210 mins by time-kill assay (reference value: 3.2 10^9 CFU/ml); type: functional
Albumin [7] = biological target: T1, Albumin; assay: Binding affinity to HSA assessed as modified Stern-Volmer quenching constant at pH 7.4 at 313 K by fluorescence assay; type: ADME; conditions: isolated protein
Staphylococcus aureus [8] = assay: Antibacterial activity against drug-resistant Staphylococcus aureus after 24 hrs by micro broth dilution method; type: functional
Staphylococcus aureus [9] = assay: Antibacterial activity against Staphylococcus aureus ATCC 25923 after 24 hrs by micro broth dilution method; type: functional; conditions: ATCC 25923, 24 h
Albumin [10] = biological target: T1, Albumin; assay: Binding affinity to HSA assessed as biomolecular quenching rate constant at pH 7.4 at 290 K by fluorescence assay; type: ADME; conditions: isolated protein
Pseudomonas aeruginosa [11] = assay: Bactericidal activity against drug sensitive Pseudomonas aeruginosa assessed as bacterial load at 4 times MIC after 120 mins by time-kill assay (reference value: 9.3 10^5 CFU/ml); type: functional
Albumin [12] = biological target: T1, Albumin; assay: Binding affinity to HSA assessed as Stern-Volmer quenching constant at pH 7.4 at 290 K by fluorescence assay; type: ADME; conditions: isolated protein
Candida albicans [13] = assay: Antifungal activity against Candida albicans ATCC 90023 after 24 hrs by micro broth dilution method; type: functional; conditions: ATCC 90023, 24 h
Albumin [14] = biological target: T1, Albumin; assay: Binding affinity to HSA assessed as modified Stern-Volmer quenching constant at pH 7.4 at 290 K by fluorescence assay; type: ADME; conditions: isolated protein
Pseudomonas aeruginosa [15] = assay: Bactericidal activity against drug sensitive Pseudomonas aeruginosa assessed as bacterial load at 4 times MIC after 240 mins by time-kill assay (reference value: 1.1 10^10 CFU/ml); type: functional
Escherichia coli [16] = assay: Antibacterial activity against Escherichia coli ATCC 25922 after 24 hrs by micro broth dilution method; type: functional; conditions: ATCC 25922, 24 h
Pseudomonas aeruginosa [17] = assay: Bactericidal activity against drug sensitive Pseudomonas aeruginosa assessed as bacterial load at 4 times MIC after 270 mins by time-kill assay (reference value: 1.8 10^10 CFU/ml); type: functional
Albumin [18] = biological target: T1, Albumin; assay: Binding affinity to HSA assessed as modified Stern-Volmer quenching constant at pH 7.4 at 300 K by fluorescence assay; type: ADME; conditions: isolated protein
Pseudomonas aeruginosa [19] = assay: Potency index, ratio of norfloxacin MIC to compound MIC for Pseudomonas aeruginosa ATCC 27853; type: functional
Albumin [20] = biological target: T1, Albumin; assay: Binding affinity to HSA assessed as Stern-Volmer quenching constant at pH 7.4 at 300 K by fluorescence assay; type: ADME; conditions: isolated protein
DNA [21] = assay: Binding affinity to sensitive Pseudomonas aeruginosa DNA assessed as hypochromic effect at 3.81 x 10^-6mol/L by neutral red dye based UV-vis spectroscopic method; type: nucleic-acid assay
Albumin [22] = biological target: T1, Albumin; assay: Binding affinity to HSA assessed as equilibrium binding constant at pH 7.4 at 300 K by scatchard assay; type: ADME; conditions: isolated protein
Candida tropicalis [23] = assay: Antifungal activity against Candida tropicalis after 24 hrs by micro broth dilution method; type: functional
Staphylococcus aureus [24] = assay: Antibacterial activity against Staphylococcus aureus ATCC 29213 after 24 hrs by micro broth dilution method; type: functional; conditions: ATCC 29213, 24 h
Pseudomonas aeruginosa [25] = assay: Antibacterial activity against drug-resistant Pseudomonas aeruginosa after 24 hrs by micro broth dilution method; type: functional
Candida albicans [26] = assay: Antifungal activity against drug-resistant Candida albicans after 24 hrs by micro broth dilution method; type: functional
Pseudomonas aeruginosa [27] = assay: Bactericidal activity against drug sensitive Pseudomonas aeruginosa assessed as log reduction in bacterial load at 4 times MIC after 120 mins by time-kill assay; type: functional
Pseudomonas aeruginosa [28] = assay: Antibacterial activity against Pseudomonas aeruginosa ATCC 27853 after 24 hrs by micro broth dilution method; type: functional; conditions: ATCC 27853, 24 h
Staphylococcus aureus [29] = assay: Antibacterial activity against methicillin-resistant Staphylococcus aureus N315 after 24 hrs by micro broth dilution method; type: functional; conditions: N315, 24 h
Albumin [30] = biological target: T1, Albumin; assay: Binding affinity to HSA assessed as Stern-Volmer quenching constant at pH 7.4 at 313 K by fluorescence assay; type: ADME; conditions: isolated protein
DNA [31] = assay: Binding affinity to sensitive Pseudomonas aeruginosa DNA assessed as hypochromic effect by neutral red dye based UV-vis spectroscopic method; type: nucleic-acid assay
Albumin [32] = biological target: T1, Albumin; assay: Binding affinity to HSA assessed as biomolecular quenching rate constant at pH 7.4 at 313 K by fluorescence assay; type: ADME; conditions: isolated protein
Albumin [33] = biological target: T1, Albumin; assay: Binding affinity to HSA assessed as biomolecular quenching rate constant at pH 7.4 at 300 K by fluorescence assay; type: ADME; conditions: isolated protein
Pseudomonas aeruginosa [34] = assay: Bactericidal activity against drug sensitive Pseudomonas aeruginosa assessed as bacterial load at 4 times MIC after 180 mins by time-kill assay (reference value: 3.5 10^7 CFU/ml); type: functional
Albumin [35] = biological target: T1, Albumin; assay: Binding affinity to HSA assessed as equilibrium binding constant at pH 7.4 at 313 K by scatchard assay; type: ADME; conditions: isolated protein

T1 sequence (P02768 whole entry): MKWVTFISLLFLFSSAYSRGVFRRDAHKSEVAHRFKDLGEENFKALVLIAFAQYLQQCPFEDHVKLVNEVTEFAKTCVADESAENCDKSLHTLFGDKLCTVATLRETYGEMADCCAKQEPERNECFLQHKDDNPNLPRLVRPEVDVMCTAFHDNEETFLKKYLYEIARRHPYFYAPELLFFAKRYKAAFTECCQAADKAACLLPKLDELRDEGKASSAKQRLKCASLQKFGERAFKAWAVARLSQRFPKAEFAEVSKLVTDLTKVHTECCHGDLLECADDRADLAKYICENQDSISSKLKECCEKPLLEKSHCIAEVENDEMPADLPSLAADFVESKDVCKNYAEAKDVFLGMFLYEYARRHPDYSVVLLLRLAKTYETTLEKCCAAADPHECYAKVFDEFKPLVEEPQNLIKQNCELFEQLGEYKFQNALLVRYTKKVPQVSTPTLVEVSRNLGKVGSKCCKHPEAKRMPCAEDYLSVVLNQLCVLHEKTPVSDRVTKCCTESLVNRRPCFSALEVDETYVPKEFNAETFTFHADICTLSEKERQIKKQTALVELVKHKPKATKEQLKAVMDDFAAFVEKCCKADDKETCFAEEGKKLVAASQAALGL

## COc1cc(/C=C(\C(C)O)n2c([N+](=O)[O-])cnc2C)ccc1O (stereo not given)
Albumin [1]
  Kb: 4.77 ×10⁴ L/mol
Pseudomonas aeruginosa [2]
  Activity: 3 ×10³ CFU/ml
Candida tropicalis [3]
  Ratio: 4
DNA [4]
  Activity: Active
Escherichia coli [5]
  MIC: 1600 µM (≈ 511 µg/mL)
Pseudomonas aeruginosa [6]
  Activity: 87 CFU/ml
Albumin [7]
  KSV: 47400 M⁻¹
Staphylococcus aureus [8]
  MIC: 1600 µM (≈ 511 µg/mL)
Staphylococcus aureus [9]
  MIC: 800 µM (≈ 255 µg/mL)
Albumin [10]
  Kq: 1.18 ×10¹³ L/mol/s
Pseudomonas aeruginosa [11]
  Activity: 9.3 ×10⁶ CFU/ml
Albumin [12]
  KSV: 7.54 ×10⁴ L/mol
Candida albicans [13]
  MIC: 32 µg/mL (≈ 100 µM)
Albumin [14]
  KSV: 82200 M⁻¹
Pseudomonas aeruginosa [15]
  Activity: 72 CFU/ml
Escherichia coli [16]
  MIC: 400 µM (≈ 128 µg/mL)
Pseudomonas aeruginosa [17]
  Activity: 65 CFU/ml
Albumin [18]
  KSV: 61800 M⁻¹
Pseudomonas aeruginosa [19]
  Ratio: 4 - 16
Albumin [20]
  KSV: 6.12 ×10⁴ L/mol
DNA [21]
  Activity: Active
Albumin [22]
  Kb: 4.77 ×10⁴ L/mol
Candida tropicalis [23]
  MIC: 128 µg/mL (≈ 401 µM)
Staphylococcus aureus [24]
  MIC: 800 µM (≈ 255 µg/mL)
Pseudomonas aeruginosa [25]
  MIC: 400 µM (≈ 128 µg/mL)
Candida albicans [26]
  MIC: 256 µg/mL (≈ 802 µM)
Pseudomonas aeruginosa [27]
  Activity: >3.5 log10CFU/ml
Pseudomonas aeruginosa [28]
  MIC: 100 µM (≈ 31.9 µg/mL)
Staphylococcus aureus [29]
  MIC: 1600 µM (≈ 511 µg/mL)
Albumin [30]
  KSV: 4.99 ×10⁴ L/mol
DNA [31]
  K: 1.83 ×10⁴ L/mol
Albumin [32]
  Kq: 7.79 ×10¹³ L/mol/s
Albumin [33]
  Kq: 9.56 ×10¹³ L/mol/s
Pseudomonas aeruginosa [34]
  Activity: 1.5 ×10² CFU/ml
Albumin [35]
  Kb: 4.83 ×10⁴ L/mol
